ChEMBL document CHEMBL1150473, “Schotten-Baumann acylation of N-debenzoyltaxol; an efficient route to N-acyl taxol analogues and their biological evaluation” (1994)

Legend:
[1] = tested on: B16; assay: Cytotoxic ratio of inhibition of B16 melanoma cell proliferation after 40 hour incubation relative to taxol; format: functional, Mus musculus
[2] = biological target: Tubulin alpha chain (Sus scrofa) (UniProt P02550); assay: Evaluated for ability to initiate the polymerization of tubulin in the microtubule assembly assay expressed as ED50(compound) / ED50(taxol); format: functional
Chain of Tubulin alpha chain (Sus scrofa) (P02550 whole entry, looked up): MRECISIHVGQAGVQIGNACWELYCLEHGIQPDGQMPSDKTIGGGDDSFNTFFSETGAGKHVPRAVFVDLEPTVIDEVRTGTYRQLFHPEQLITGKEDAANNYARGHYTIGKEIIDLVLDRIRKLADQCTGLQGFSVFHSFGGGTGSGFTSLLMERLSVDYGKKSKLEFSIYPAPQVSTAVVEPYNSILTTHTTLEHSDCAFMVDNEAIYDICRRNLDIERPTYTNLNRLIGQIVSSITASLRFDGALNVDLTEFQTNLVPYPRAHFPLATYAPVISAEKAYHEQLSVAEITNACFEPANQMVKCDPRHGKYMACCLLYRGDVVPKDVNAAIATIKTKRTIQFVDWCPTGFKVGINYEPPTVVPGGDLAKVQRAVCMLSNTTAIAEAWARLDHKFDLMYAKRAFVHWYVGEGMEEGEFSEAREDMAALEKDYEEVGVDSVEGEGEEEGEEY

SMILES | ED50 ratio [1] | ED50 ratio [2]
CC(=O)O[C@H]1C(=O)[C@@]2(C)[C@H]([C@H](OC(=O)c3ccccc3)[C@]3(O)C[C@H](OC(=O)[C@H](O)[C@@H](NC(=O)c4c(F)c(F)c(N=[N+]=[N-])c(F)c4F)c4ccccc4)C(C)=C1C3(C)C)[C@]1(OC(C)=O)CO[C@@H]1C[C@@H]2O | 14.8 | 4.6
CC(=O)O[C@H]1C(=O)[C@@]2(C)[C@H]([C@H](OC(=O)c3ccccc3)[C@]3(O)C[C@H](OC(=O)[C@H](O)[C@@H](NC(=O)CC(C)(C)C)c4ccccc4)C(C)=C1C3(C)C)[C@]1(OC(C)=O)CO[C@@H]1C[C@@H]2O | 3.13 | 0.74
CC(=O)O[C@H]1C(=O)[C@@]2(C)[C@H]([C@H](OC(=O)c3ccccc3)[C@]3(O)C[C@H](OC(=O)[C@H](O)[C@@H](NC(=O)C(C)(C)C)c4ccccc4)C(C)=C1C3(C)C)[C@]1(OC(C)=O)CO[C@@H]1C[C@@H]2O | 22.4 | 2.61
CC(=O)O[C@@]12CO[C@@H]1C[C@H](O)[C@@]1(C)C(=O)[C@H](O)C3=C(C)[C@@H](OC(=O)[C@H](O)[C@@H](NC(=O)OC(C)(C)C)c4ccccc4)C[C@@](O)([C@@H](OC(=O)c4ccccc4)[C@H]21)C3(C)C.O.O.O [DOCETAXEL] | 0.23 | 0.55
CC(=O)O[C@H]1C(=O)[C@@]2(C)[C@H]([C@H](OC(=O)c3ccccc3)[C@]3(O)C[C@H](OC(=O)[C@H](O)[C@@H](NC(=O)CC(C)C)c4ccccc4)C(C)=C1C3(C)C)[C@]1(OC(C)=O)CO[C@@H]1C[C@@H]2O | 2.65 | 1.18
CC(=O)O[C@H]1C(=O)[C@@]2(C)[C@H]([C@H](OC(=O)c3ccccc3)[C@]3(O)C[C@H](OC(=O)[C@H](O)[C@@H](NC(=O)c4ccccc4)c4ccccc4)C(C)=C1C3(C)C)[C@]1(OC(C)=O)CO[C@@H]1C[C@@H]2O [PACLITAXEL] | 1 | 1
